The test system of test [1] is panel of microorganisms (target strains). Put plainly: MIC determination against the panel of microorganisms (target strains). Conditions: comparison with mersacidin or with parent single mutants. It is filed as cell-based. Here is the method: Partially purified fermentation samples from clones expressing highly produced variants were assayed for antimicrobial activity against M. luteus. Samples were fractionated to eliminate interfering bioactive compounds produced by the host strain and were bioassayed (see Supplemental Data available online). Selected mersacidin variants with antibacterial activity against M. luteus were produced at larger scale for quantitative studies (2 l). The mersacidin variants were purified and assayed against a panel of microorganisms to determine the MIC values.
(§1) Antibacterial activity of fermentation samples or purified samples was determined by Mueller-Hinton Agar diffusion bioassays using M. luteus ATCC 4698 as the indicator strain. Susceptibility testing (minimum inhibitory concentration [MIC]) for all aerobic organisms, with the exception of S. pneumoniae, was performed following the recommendations of CLSI. Susceptibility testing of S. pneumoniae was performed by two-fold serial dilutions in brain-heart-infusion broth supplemented with 50 μg/ml Ca^2+. Vancomycin was used as a reference antibiotic, and plates were incubated aerobically, with shaking, for 18–20 hr at 37°C with the MIC defined as the lowest concentration of drug that prevented visible growth.

In the next test the test system is E. faecium ATCC19579. It is filed as cell-based. The protocol: as §1
A further test relates to S. epidermidis NCTC11047. It is filed as cell-based. Here is the method: as §1
The subject of the next test is E. faecalis ATCC29212. The test is classed as cell-based. Here is the method:
as §1

In the next test the test system is E. faecium 7131121 VRE. The test is classed as cell-based. The protocol:
as §1

For a further test, the system named is M. luteus ATCC4698. It is filed as cell-based, Micrococcus luteus. Here is the method: as §1
In another test the test system is S. aureus R33 MRSA. The test is classed as cell-based, Staphylococcus aureus. Here is the method: as §1
For another test, the system named is S. aureus SH1000. It is filed as cell-based, Staphylococcus aureus. The protocol:
as §1

Another test concerns S. pneumoniae BAA-255. It is filed as cell-based, Streptococcus pneumoniae. Here is the method:
as §1

The test system of the next test is MRSA. The following applies: ref Kruszewska et al., 2004; cited from earlier work. The source says: (§2) Mersacidin has antibacterial activity against Gram-positive pathogens; like vancomycin, it binds to the peptidoglycan precursor lipid II ([Brotz et al., 1995; Brotz et al., 1997]).
In test [2] the test system is methicillin-resistant Staphylococcus aureus (MRSA). Conditions: administered subcutaneously; at concentrations comparable to vancomycin; ref Chatterjee et al., 1992b; cited from earlier work.
Text: as §2

The mark [3] stands for this setting: CLSI recommendations, incubated aerobically with shaking 18–20 hr at 37°C, MIC = lowest concentration preventing visible growth, purified variants.

The text below walks through data of publication PMC2706954, “Dissecting Structural and Functional Diversity of the Lantibiotic Mersacidin” (Chemistry & Biology, 2009).

Values after ≈ are worked out from the molar mass of the structure shown. Values joined by “and” are separate entries in the source; they are usually repeats but may differ in a detail not shown here. Equal values may be shown once. Read-outs that look alike come from different tables or passages of the source. Where no end group is shown, it is not given here.

With “F3W-L14I (CTWTLPGGGGVCTITSECIC; also: mersacidin methyllanthionine thioether bridges, not placed, C-terminal decarboxylated Cys (2-thioethenamine); UniProt P43683 49-68, looked up, variant F3W L14I)”, in test [1], the “antibacterial activity, in words, compared with parent” value is recorded as “comparable to those of the parent mutants”.
Regarding `C=C1NC(=O)C2NC(=O)[C@H](CC(C)C)NC(=O)C(NC(=O)[C@@H]3CSC(C)C(NC(=O)[C@H](Cc4ccccc4)NC(=O)C4NC(=O)[C@@H](N)CSC4C)C(=O)N[C@@H](CC(C)C)C(=O)N4CCC[C@H]4C(=O)NCC(=O)NCC(=O)NCC(=O)N[C@@H](CC(N)=O)C(=O)N[C@@H](C(C)C)C(=O)N3)C(C)SC[C@H](NC(=O)[C@H](CCC(=O)O)NC1=O)C(=O)N[C@@H]([C@@H](C)CC)C(=O)NC=CSC2C` (some centres unmarked) [G10N], the “MIC E. faecium ATCC19579” value against E. faecium ATCC19579 (ATCC19579) is above 64 µg/mL. Besides, the “MIC S. epidermidis NCTC11047” value against S. epidermidis NCTC11047 (NCTC11047) is above 64 µg/mL. For the same compound, in the test with E. faecalis ATCC29212 (ATCC29212), the “MIC E. faecalis ATCC29212” value was above 64 µg/mL. In addition, in the test with E. faecium 7131121 VRE (7131121 VRE), the “MIC E. faecium 7131121 VRE” value is above 64 µg/mL. Besides, the “MIC M. luteus ATCC4698” value in the test with M. luteus ATCC4698 (ATCC4698) came out at 8 µg/mL (≈ 4.25 µM). In addition, in the test with S. aureus R33 MRSA (R33), the “MIC S. aureus R33 MRSA” value was 64, >64 μg/ml. The “MIC S. aureus SH1000” value against S. aureus SH1000 (SH1000) was above 64 µg/mL. The “MIC S. pneumoniae BAA-255” value against S. pneumoniae BAA-255 (BAA-255) is above 64 µg/mL.
As for Mersacidin [reference compound], the “MIC E. faecium ATCC19579” value with E. faecium ATCC19579 (setting [3]) came to 32 µg/mL. Besides, the “MIC S. epidermidis NCTC11047” value against S. epidermidis NCTC11047 (setting [3]) is 16 µg/mL and 32 µg/mL. Moreover, the “MIC E. faecalis ATCC29212” value with E. faecalis ATCC29212 (setting [3]) came out at 64 µg/mL. In the test with E. faecium 7131121 VRE (vancomycin-resistant clinical isolate, CLSI recommendations, 18–20 hr at 37°C, MIC = lowest concentration preventing visible growth), the “MIC E. faecium 7131121 VRE” value is 64 µg/mL. Moreover, the “MIC M. luteus ATCC4698” value in the test on M. luteus ATCC4698 (setting [3]) is 1 µg/mL and 2 µg/mL. Besides, in the test on S. aureus R33 MRSA (setting [3]), the “MIC S. aureus R33 MRSA” value stood at 32 µg/mL. In the test with S. aureus SH1000 (setting [3]), the “MIC S. aureus SH1000” value turned out to be 32 µg/mL. Besides, the “MIC S. pneumoniae BAA-255” value in the test on S. pneumoniae BAA-255 (two-fold serial dilutions in brain-heart-infusion broth with 50 μg/ml Ca2+, 18–20 hr at 37°C, MIC = lowest concentration preventing visible growth) came to 2 µg/mL. In the test with MRSA, the “eradication of MRSA in a mouse rhinitis model” value was “eradicates MRSA”. Further, in test [2], the “cure of abscesses in rats” value was “cures” and the “cure of systemic MRSA infections in mice” value was “cures”.
As to `CC[C@H](C)[C@@H]1NC(=O)[C@@H]2CSC(C)C(NC(=O)[C@@H]3CSC(C)C(NC(=O)[C@H](Cc4ccccc4)NC(=O)C4NC(=O)[C@@H](N)CSC4C)C(=O)N[C@@H](CC(C)C)C(=O)N4CCC[C@H]4C(=O)NCC(=O)NCC(=O)NCC(=O)NCC(=O)N[C@@H](C(C)C)C(=O)N3)C(=O)N[C@@H](CC(C)C)C(=O)NC(C(=O)N[C@@H](C)C(=O)N[C@@H](CCC(=O)O)C(=O)N2)C(C)SC=CNC1=O` (some centres unmarked) [S16A], in the test with E. faecium ATCC19579 (ATCC19579), the “MIC E. faecium ATCC19579” value turned out to be 32 µg/mL (≈ 17.5 µM). Moreover, the “MIC S. epidermidis NCTC11047” value with S. epidermidis NCTC11047 (NCTC11047) was 32 µg/mL (≈ 17.5 µM). Further, the “MIC E. faecalis ATCC29212” value with E. faecalis ATCC29212 (ATCC29212) came out at 64 µg/mL (≈ 35 µM). Moreover, in the test with E. faecium 7131121 VRE (7131121 VRE), the “MIC E. faecium 7131121 VRE” value was above 64 µg/mL. Also, the “MIC M. luteus ATCC4698” value with M. luteus ATCC4698 (ATCC4698) is 2 µg/mL (≈ 1.09 µM). Also, the “MIC S. aureus R33 MRSA” value in the test on S. aureus R33 MRSA (R33) was found to be 16 µg/mL (≈ 8.75 µM). The “MIC S. aureus SH1000” value in the test with S. aureus SH1000 (SH1000) is 64 µg/mL (≈ 35 µM). The “MIC S. pneumoniae BAA-255” value with S. pneumoniae BAA-255 (BAA-255) amounted to 4 µg/mL (≈ 2.19 µM).
As for “V11I-L14I (CTFTLPGGGGICTITSECIC; also: mersacidin methyllanthionine thioether bridges, not placed, C-terminal decarboxylated Cys (2-thioethenamine); UniProt P43683 49-68, looked up, variant V11I L14I)”, the “antibacterial activity, in words, compared with parent” value in test [1] is recorded as “comparable to those of the parent mutants”.
